For assay [1], the system named is PC3 prostate cancer cells. As to the kind of experiment: MTT cell viability assay, PC3. The class given is cell-based. The note with it: for IC50: MTT. How it is done: PC3 prostate cancer cells were maintained in DMEM (Invitrogen™, Carlsebad, CA) supplemented with 10% FBS or Corning® Nu-serum™(BD™ Biosciences, Franklin Lakes, NJ) and 1% penicillin/streptomycin (Invitrogen™) in a humidified incubator and 5% CO2 at 37° C.
Exponentially growing cells were plated in 96-well dishes. Dose response curves were used to treat cells for 72 hours with inhibitors. Following the three-day treatment, cell viability was measured using the MTT (3-(4,5-dimethylthiazol-2-yl)-2,5-diphenyltetrazolium bromide) colorimetric assay. Cells were incubated for 3 hours with MTT allowing viable cells to metabolize the tetrazolium dye to a purple colored solution. Absorbance measurements (595 nm) were quantified using a DTX 880 plate reader and IC50 values were generated for FLIPs.

Assay [2] has as its target T1, PLK3 PBD (335-646) (Homo sapiens, UniProt Q9H4B4).
T1 construct: PLK1 PBD (367-603) and PLK3 PBD (335-646) proteins were obtained from BPS Biosciences Inc; purchased BPS Biosciences Inc. (San Diego, CA)
T1 sequence (Q9H4B4 335-646): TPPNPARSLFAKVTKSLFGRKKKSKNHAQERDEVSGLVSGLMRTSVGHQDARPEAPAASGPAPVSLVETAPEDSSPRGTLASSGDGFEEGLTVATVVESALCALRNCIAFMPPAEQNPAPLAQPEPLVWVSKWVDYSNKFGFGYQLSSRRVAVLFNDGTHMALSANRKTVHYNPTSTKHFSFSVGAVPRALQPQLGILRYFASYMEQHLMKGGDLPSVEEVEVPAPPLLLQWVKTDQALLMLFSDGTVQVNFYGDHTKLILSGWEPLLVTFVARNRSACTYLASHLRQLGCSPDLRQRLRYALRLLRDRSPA
As to the kind of experiment: Fluorescence polarization assay, PLK3 PBD. Type of assay: binding. The protocol: (§1) Materials were dissolved in DMSO (10 mM) and diluted from 10 nM to 600 μM (maximum of 6% DMSO tolerance in the assay). PLK1 PBD (367-603) and PLK3 PBD (335-646) proteins were obtained from BPS Biosciences Inc. (San Diego, CA); 17 ng PLK1 and 156 ng PLK3 were used per reaction. The fluorescein-tracer phospho-peptides (MAGPMQS[pT]PLNGAKK (SEQ ID NO: 1) for PLK1, and GPLATS[pT]PKNG (SEQ ID NO: 2) for PLK3) were used at a final concentration of 10 nM. Incubation was carried out at room temperature for 45 minutes. Fluorescence was measured using a DTX 880 plate reader and Multimode Analysis software (Beckman Coulter, Brea, CA). The polarization values in millipolarization (mP) units were measured at an excitation wavelength of 488 nm and an emission wavelength of 535 nm. Each data point was performed in triplicate for every experiment, and experiments were performed at least three times. An IC50 value for each compound was calculated from linear regression analysis of the plots.

For assay [3], the target named is T2, PLK1 PBD (367-603) (Homo sapiens, UniProt P53350).
T2 construct: PLK1 PBD (367-603) and PLK3 PBD (335-646) proteins were obtained from BPS Biosciences Inc; purchased BPS Biosciences Inc. (San Diego, CA)
T2 sequence (P53350 367-603): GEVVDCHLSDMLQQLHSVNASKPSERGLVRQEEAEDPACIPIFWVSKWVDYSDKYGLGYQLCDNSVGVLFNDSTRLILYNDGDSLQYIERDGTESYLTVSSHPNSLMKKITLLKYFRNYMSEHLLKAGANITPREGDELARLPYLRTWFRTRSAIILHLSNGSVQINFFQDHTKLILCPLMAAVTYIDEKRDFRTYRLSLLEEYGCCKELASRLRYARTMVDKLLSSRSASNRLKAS
As to the kind of experiment: Fluorescence polarization assay, PLK1 PBD. The class given is binding. The conditions noted are these: for IC50: fluorescence polarization, read-out: PLK1 PBD IC50. The protocol: as §1

For assay [4], the system named is HOP-92. As to the kind of experiment: Single dose cell viability assay, HOP-92. The class given is cell-based. The conditions noted are these: HOP-92 (NSCLC), single dose 10 μM. The protocol: Lead abbapolin compounds were tested in multiple cancer cell lines, including non-small cell lung cancer (NSCLC) cells, melanoma cells, colon cancer cells, central nervous system (CNS) cancer cells, prostate cancer cells, renal cancer cells, and breast cancer cells. Each of these cancer cells lines were sensitive to the lead abbapolin compounds in a cell viability assay, including 6184 (Table 3), 6277 (Table 4), 6279 (Table 5), 6355 (Table 6), 6359 (Table 7), 6369 (Table 8), and 6421 (Table 9).

The target of assay [5] is T3, PLK1 (Homo sapiens, UniProt P53350). Description: PLK1 degradation in HeLa cells. Type of assay: cell-based. Also on record: endogenous in cells. The note with it: HeLa cell line, 24, 48 and 72 hours. How it is done: (§2) For example, PC3 cells were treated with varying dosages of abbapolin 6369, and percent of PLK1 degradation was measured at 24 hours (FIGS. 8A-8B). HeLa cells were treated with 25 μM abbapolin 6369, and time points shown in the assay were 24 hours, 48 hours, and 72 hours (FIGS. 9A-9B). PC3 cells were treated with varying dosages of abbapolin 6329, and percent of PLK1 degradation was measured at 24 hours (FIGS. […]). HeLa cells were treated with varying dosages of abbapolin 6329, and time points shown in the assay were 24 hours, 48 hours, and 72 hours (FIGS. 11A-11B).
T3 sequence (P53350 whole entry): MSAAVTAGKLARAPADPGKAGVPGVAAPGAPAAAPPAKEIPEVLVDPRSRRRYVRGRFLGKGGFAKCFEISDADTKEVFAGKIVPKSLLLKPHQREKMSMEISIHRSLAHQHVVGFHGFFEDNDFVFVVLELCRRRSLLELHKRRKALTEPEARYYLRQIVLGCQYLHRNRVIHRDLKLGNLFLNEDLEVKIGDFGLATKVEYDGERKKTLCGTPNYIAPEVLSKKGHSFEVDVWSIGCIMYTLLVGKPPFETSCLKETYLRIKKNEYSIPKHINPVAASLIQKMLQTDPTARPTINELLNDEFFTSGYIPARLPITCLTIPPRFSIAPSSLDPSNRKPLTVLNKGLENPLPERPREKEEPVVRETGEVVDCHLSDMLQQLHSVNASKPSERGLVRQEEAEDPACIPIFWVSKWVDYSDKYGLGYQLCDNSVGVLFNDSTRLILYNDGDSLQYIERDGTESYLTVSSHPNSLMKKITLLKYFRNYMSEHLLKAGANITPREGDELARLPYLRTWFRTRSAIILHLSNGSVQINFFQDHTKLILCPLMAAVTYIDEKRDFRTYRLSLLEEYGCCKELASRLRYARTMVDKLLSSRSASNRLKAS

Assay [6] concerns the target T3, PLK1. As to the kind of experiment: PLK1 degradation in PC3 cells. Type of assay: cell-based. On the set-up: endogenous in cells; host or cells: PC3 prostate cancer cells. The conditions noted are these: PC3 cell line, 24 hours. How it is done: as §2
The target of assay [7] is T3, PLK1. As to the kind of experiment: Cellular thermal shift assay (CETSA). Type of assay: cell-based. Also on record: endogenous in cells; host or cells: PC3 prostate cancer cells. The conditions noted are these: intracellular PLK1. The protocol: Cellular thermal shift assay (CETSA) was performed with PC3 cells cultured in RPMI medium supplemented with 10% FBS. For an initial determination of the melting profile of PLK1 AND PLK3, cells dispensed into 96-well PCR plates in the above medium (6000 cells/well in 50 μL) were subjected to temperature gradient (38-60° C.) for 10 min. […] Centrifugation was performed at 14000 rpm to sediment the denatured protein content. Supernatant was collected and subjected to SDS-PAGE, and immunodetection was performed using anti-PLK1 and anti-PLK3 antibodies. PLK1 and PLK3 bands were quantified on a LI-COR C-Digit Blot Scanner, and Tagg and Tagg values were calculated for both proteins. In subsequent experiments, cells were treated at increasing doses (3.0, 1.0, 0.3, 0.1, 0.03 μM) of inhibitors together with DMSO control, for 2 h. Cells were then subjected to heat shock at Tagg for 10 min, and unstable protein was removed by centrifugation step. Following immuno-blotting, bands of stable PLK1 and PLK3 were quantified, normalized to loading control and plotted using GraphPad Prism software. EC50 values for inhibitors were calculated. […] The EC50 of the peptides were determined from the curve fit of the dose response.

SMILES strings stand for the structures.

On to `Cc1ccc(NC(=O)c2ccc(N)cc2)c(C(=O)O)c1` [compound 6153], for which the IC50 was > 120 µM in assay [1] (72 h), > 600 µM in assay [2] and > 600 µM in assay [3].
Consider `Cc1ccc(C(=O)O)c(NC(=O)c2ccc(N)cc2)c1` [compound 6154], for which the IC50 in assay [1] (72 h) is > 120 µM; in assay [3] it was > 600 µM.
In the case of `CCCCCCCCc1ccc(C(=O)Nc2ccc(C(F)(F)F)cc2C(=O)O)cc1` [compound 6165], the IC50 in assay [1] (72 h) stood at 14.2 ± 2 µM; in assay [2], 37.6 ± 5.7 µM; in assay [3], 23.5 ± 4.9 µM.
Turning to `CCCCCCCCN(C)c1ccc(C(=O)Nc2cc(C)ccc2C(=O)O)cc1` [compound 6171], the IC50 in assay [1] (72 h) was 27.3 µM; in assay [3], > 600 µM.
For `CCCCCCCCN(C)c1ccc(C(=O)Nc2ccc(C)cc2C(=O)O)cc1` [compound 6172] the same measures were 28 µM and > 600 µM.
Consider `CCCCCCCCc1ccc(C(=O)Nc2ccccc2CP(=O)(O)O)cc1` [compound 6184], for which the “Cells Remaining (%)” value in assay [4] is 43.86%. Also, the IC50 in assay [1] (72 h) came out at 9.2 µM; in assay [3], 95.3 µM.
Consider `CCCCCCNC(=O)c1ccc(C(=O)Nc2ccc(C)cc2C(=O)O)cc1` [compound 6189], for which the “PLK1 PBD % inhi.” value in assay [3] (at 400 μM) amounted to 37% inhi. at.
For `CCCCCCCCc1ccc(C(=O)Nc2cccc(CP(=O)(O)O)c2)cc1` [compound 6195], the IC50 is 20.4 ± 4.4 µM in assay [1] (72 h) and 51.5 µM in assay [3].
For the compound `CCCCCCCCc1ccc(C(=O)Nc2ccc(C)cc2C(=O)O)cc1OC` [compound 6280], the IC50 in assay [1] (72 h) is 25.9 µM; in assay [1] (72 hours) it was 18.3 µM; in assay [2], > 200 µM; in assay [3], > 100 µM.
For the compound `CCCCCCCCc1cccc(C(=O)Nc2ccc(C)cc2C(=O)O)c1` [compound 6281], the IC50 in assay [3] was determined as 19.5 µM.
Turning to `CCCCCCCCc1ccc(C(=O)Nc2ccc(C)cc2C(=O)O)cc1C` [compound 6282], the IC50 in assay [3] was 21 µM.
As for `CCCCCCCCc1ccc(C(=O)Nc2ccccc2P(=O)(O)O)cc1` [compound 6286], the results for the IC50 in assay [1] (72 h), in assay [1] (72 hours) and in assay [3] were 26.6 µM, 25.1 µM and 53 µM, respectively.
In turn, `CCCCCCCCc1ccc(C(=O)Nc2cccc(P(=O)(O)O)c2)cc1` [compound 6287] returned a PC3 % inhi. in assay [1] (at 100 μM) of 50% inhi. at. In assay [3], the IC50 was 80.8 µM.
As for `Cc1ccc(NC(=O)c2ccc(OCCCCCCCCCCCNC(=O)CCCC(=O)Nc3cccc4c3C(=O)N(C3CCC(=O)NC3=O)C4=O)cc2)c(C(=O)O)c1` (centres unmarked) [compound 6329], the PLK1 degradation entry in assay [5] and in assay [6] was “degradation of PLK1” in each case.
Turning to `CC[C@@H]1C(=O)N(C)c2cnc(Nc3ccc(C(=O)N[C@H]4CC[C@H](N5CCN(CC6CC6)CC5)CC4)cc3OC)nc2N1C(C)C` [volasertib, reference compound], the “PLK1 thermal stability by CETSA” value in assay [7] is “decreased the stability of PLK1”.

Values taken from US20230338316A1, “ABBAPOLINS AS INHIBITORS AND DEGRADERS OF POLO-LIKE KINASES” (UNIVERSITY OF SOUTH CAROLINA, priority 2022, published 2023).
